# Results as given in US20210322545A1 (priority 2016, published 2021).
# Tested on: cancer cell lines
# Format: cell-based
row,Substance,synergy with SMC using recombinant cytokines
1,IFNγ,recapitulated
2,IFNα,recapitulated
